Results published in ChEMBL document CHEMBL4342441, “Small molecules targeting HIF-1α pathway for cancer therapy in recent years” (Bioorg Med Chem, 2020).
pIC50: −log10 of the molar value.

Legend:
[1] = target: T1, Hypoxia-inducible factor 1-alpha (Homo sapiens, UniProt Q16665); test: Activation of HIF1 in human T47D cells after 30 mins by luciferase reporter gene assay; type: cell-based
[2] = target: T1, Hypoxia-inducible factor 1-alpha; test: Activation of HIF1 in human T47D cells; type: cell-based

T1 sequence (Q16665 whole entry): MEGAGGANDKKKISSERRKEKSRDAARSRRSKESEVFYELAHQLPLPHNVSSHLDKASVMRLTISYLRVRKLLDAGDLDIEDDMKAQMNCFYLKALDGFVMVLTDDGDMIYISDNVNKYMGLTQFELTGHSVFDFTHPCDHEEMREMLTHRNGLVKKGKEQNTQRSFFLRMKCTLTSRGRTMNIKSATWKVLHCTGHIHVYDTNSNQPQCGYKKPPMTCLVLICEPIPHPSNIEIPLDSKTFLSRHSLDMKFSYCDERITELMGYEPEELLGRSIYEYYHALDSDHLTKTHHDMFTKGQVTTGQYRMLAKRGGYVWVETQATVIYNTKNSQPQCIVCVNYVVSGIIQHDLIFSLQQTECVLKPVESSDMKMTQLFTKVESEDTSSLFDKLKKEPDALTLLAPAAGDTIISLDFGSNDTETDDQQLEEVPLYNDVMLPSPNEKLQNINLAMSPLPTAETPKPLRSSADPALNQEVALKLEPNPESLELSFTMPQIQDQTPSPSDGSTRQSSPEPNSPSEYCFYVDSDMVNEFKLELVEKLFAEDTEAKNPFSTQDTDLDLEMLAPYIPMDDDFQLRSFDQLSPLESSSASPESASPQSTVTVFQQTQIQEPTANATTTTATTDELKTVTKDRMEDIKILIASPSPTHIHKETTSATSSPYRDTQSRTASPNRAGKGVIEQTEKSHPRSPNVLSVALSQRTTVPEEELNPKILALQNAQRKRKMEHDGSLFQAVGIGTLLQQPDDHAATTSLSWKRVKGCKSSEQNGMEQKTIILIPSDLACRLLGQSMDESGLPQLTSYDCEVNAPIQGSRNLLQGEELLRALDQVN

| Compound | pIC50 [1] | pIC50 [2] |
| --- | --- | --- |
| COc1ccc([C@@H](O)[C@@H](C)Oc2ccc([C@@H]3CC[C@H](c4ccc(O[C@H](C)[C@H](O)c5ccc(OC)c(OC)c5)c(OC)c4)C3)cc2OC)cc1OC | 8.52 |  |
| COc1ccc([C@@H](O)[C@@H](C)Oc2ccc([C@H]3O[C@H](c4ccc(OC)c(OC)c4)[C@H](C)[C@H]3C)cc2OC)cc1OC |  | 7.70 |
